According to patent US11083717B2, “Compositions and methods for drug sensitization of parasites” (The Texas A&M University System, priority 2015, dated 2021):
In brackets after ≈: the same amount, converted by molar mass.

Columns and labels:
[1] = system: Cryptosporidium parvum (CP); test: Cell culture model of Cryptosporidium parvum infection in HCT-8 cells, real-time qRT-PCR; format: cell-based; settings: Cryptosporidium parvum; for MIC50: 44 h, CP in HCT-8 cells, 44 h infection, 50% reduction of parasite growth vs control, NA: not active, read-out: MIC50; for inhibition at 0.25 µM: HCT-8, @0.25 uM
Method: Fresh oocysts of CP (Iowa strain) were purchased from Bunch Grass Farm (Deary, Id.). Oocysts were further purified by a Percoll-based gradient centrifugation method and surface sterilized with 10% bleach for 7 min on ice, followed by washes with phosphate-buffered saline (PBS). An ileocecal colorectal adenocarcinoma cell line (HCT-8, ATCC #CCL-244) was used to host the growth of CP in vitro. One day before the inoculation, HCT-8 cells were seeded in 96-well plates (2.5×10^4/well) containing RPMI 1640 medium supplied with 10% fetal bovine serum (200 μL medium/well in all experiments) and allowed to grow overnight at 37° C. under 5% CO2 atmosphere until they reached ˜90% confluence. For drug testing, host cells were infected with 1.5×10^4 oocysts per well (ratio ˜1:3). After inoculation, parasite oocysts were allowed to undergo excystation and invasion into host cells for 3 h at 37° C. Free parasites and oocyst walls in the medium were removed from the plates by an exchange of the culture medium. Drugs at specified concentrations were added into the culture at this time point (immediately after the medium exchange). Parasite-infected cells were then incubated at 37° C. for additional 41 h (total 44 h infection time). At least two independent experiments were conducted for every experimental condition, each including two replicates drugs and eight replicates for negative controls.
Plates containing HCT-8 cells infected with CP for 44 h were first centrifuged for 10 min at 1000×g to ensure that free merozoites in the medium were firmly settled on the bottom of the wells. Medium was removed, followed by two gentle washes with PBS. For extracting total RNA, 200 μL of ice-cold Bio-Rad iScript qRT-PCR sample preparation reagent (lysis buffer) (Bio-Rad Laboratories, Hercules, Calif.) was added into each well. Plates were sealed with heat sealing films and subjected to vortex for 20 min. Plates were then incubated at 75° C. for 15 min, followed by centrifugation (5 min, 2000×g) to settle down cell debris. Supernatants were used immediately in subsequent qRT-PCR reactions or the plates were stored at −80° C. until use.
The levels of 18S rRNA transcripts from CP and host cells (referred to as Cp18S and Hs18S) were detected by real-time qRT-PCR method using qScrip™ one-step SYBR green qRT-PCR kit (Quanta Biosciences, Gaithersburg, Md.). Cell lysates prepared as described above were diluted by 100 and 2000 folds for detecting Cp18S and Hs18S transcripts, respectively. Reactions were performed in hard-shell 384-well skirted PCR plates (Bio-Rad Laboratories, Hercules, Calif.) (10 μL/well) containing 3 μL diluted cell lysate, 5 μL one-step SYBR green master mix, 0.2 μl RT master mix and the following primers: Cp18S-1011F and Cp18S-1185R primer pair for Cp18S rRNA, and Hs18S-1F and Hs18S-1R primer pair for Hs18S rRNA. Hs18S levels were used as controls and for normalization.
Real-time qRT-PCR reactions were performed by a Bio-Rad CFX384 Touch Real-Time PCR Detection System. The reactions started with synthesizing cDNA at 50° C. for 20 min, followed by 5 min at 95° C. to denature RNA-cDNA hybrids and deactivate reverse transcriptase, and 40 two-temperature thermal cycles of PCR amplification at 95° C., 10 sec and 58° C., 30 sec. At the end of PCR amplification, melting curve analysis was performed between 65° C. to 95° C. At least 2 technical replicates were included in qRT-PCR reactions for each sample.
The % inhibition (% inh @ (μM)) was calculated using a standard curve.

[2] = system: S. cerevisiae; test: in vitro; settings: Saccharomyces cerevisiae
[3] = system: human fibroblast; test: in vitro; settings: human

Compound: CNC(=O)Cc1c(F)cc(Oc2nc3ccc(F)cc3s2)cc1F [NZ-433, 2-{2,6-difluoro-4-[(6-fluoro-1,3-benzothiazol-2-yl)oxy]phenyl}-N-methylacetamide]
- MIC50 [1]: ~2 µM (≈ 0.705 µg/mL)
- concentrations at which not toxic, S. cerevisiae cytotoxicity testing [2]: ≥ 100 µM
- concentrations at which not toxic, human fibroblast cytotoxicity testing [3]: ≥ 100 µM

Compound: NC(=O)CNC(=O)Cc1ccc(Oc2nc3ccc(F)cc3s2)cc1 [NZ-438, N-(carbamoylmethyl)-2-{4-[(6-fluoro-1,3-benzothiazol-2-yl)oxy]phenyl}acetamide]
- MIC50 [1]: 0.25 to 1 µM (≈ 0.0898 to 0.359 µg/mL)
- inhibition at 0.25 µM [1]: 43%
- concentrations at which not toxic, S. cerevisiae cytotoxicity testing [2]: ≥ 100 µM
- concentrations at which not toxic, human fibroblast cytotoxicity testing [3]: ≥ 100 µM

Compound: O=C(O)Cc1ccc(Oc2nc3cc(F)c(F)cc3s2)cc1F [NZ-440, 2-{4-[(5,6-difluoro-1,3-benzothiazol-2-yl)oxy]-2-fluorophenyl}acetic acid]
- MIC50 [1]: ~10 µM (≈ 3.39 µg/mL)
- inhibition at 10 µM ([1]; HCT-8, @10 uM, read-out: % inh @): 53%
- concentrations at which not toxic, S. cerevisiae cytotoxicity testing [2]: ≥ 100 µM
- concentrations at which not toxic, human fibroblast cytotoxicity testing [3]: ≥ 100 µM

Compound: O=C(Cc1ccc(Oc2nc3ccc(F)cc3s2)cc1F)NC1CC1 [NZ-446, N-cyclopropyl-2-{2-fluoro-4-[(6-fluoro-1,3-benzothiazol-2-yl)oxy]phenyl}acetamide]
- MIC50 [1]: 1 to 4 µM (≈ 0.36 to 1.44 µg/mL)
- concentrations at which not toxic, S. cerevisiae cytotoxicity testing [2]: ≥ 100 µM
- concentrations at which not toxic, human fibroblast cytotoxicity testing [3]: ≥ 100 µM

Compound: CNC(=O)Cc1c(F)cc(Oc2nc3cc(F)c(F)cc3s2)cc1F [NZ-450, 2-{4-[(5,6-difluoro-1,3-benzothiazol-2-yl)oxy]-2,6-difluorophenyl}-N-methylacetamide]
- MIC50 [1]: ~2 µM (≈ 0.741 µg/mL)
- concentrations at which not toxic, S. cerevisiae cytotoxicity testing [2]: ≥ 100 µM
- concentrations at which not toxic, human fibroblast cytotoxicity testing [3]: ≥ 100 µM

Compound: CNC(=O)Cc1c(F)cc(Oc2nc3ccc(Cl)cc3s2)cc1F [NZ-459, 2-{4-[(6-chloro-1,3-benzothiazol-2-yl)oxy]-2,6-difluorophenyl}-N-methylacetamide]
- MIC50 [1]: 1 µM (≈ 0.369 µg/mL)
- concentrations at which not toxic, S. cerevisiae cytotoxicity testing [2]: ≥ 100 µM
- concentrations at which not toxic, human fibroblast cytotoxicity testing [3]: ≥ 100 µM

Compound: CNC(=O)Cc1c(F)cc(Oc2cnc3cc(Cl)ccc3n2)cc1F [NZ-460, 2-{4-[(6-chloroquinoxalin-2-yl)oxy]-2,6-difluorophenyl}-N-methylacetamide]
- inhibition at 5 µM ([1]; HCT-8, @5 uM): 19%
- concentrations at which not toxic, S. cerevisiae cytotoxicity testing [2]: ≥ 100 µM
- concentrations at which not toxic, human fibroblast cytotoxicity testing [3]: ≥ 100 µM

Compound: CN1CCN(C(=O)Cc2ccc(Oc3nc4ccc(Cl)cc4s3)cc2)CC1 [NZ-464, 2-{4-[(6-chloro-1,3-benzothiazol-2-yl)oxy]phenyl}-1-(4-methylpiperazin-1-yl)ethan-1-one]
- MIC50 [1]: 0.05 to 0.27 µM (≈ 0.0201 to 0.109 µg/mL)
- concentrations at which not toxic, S. cerevisiae cytotoxicity testing [2]: ≥ 100 µM
- concentrations at which not toxic, human fibroblast cytotoxicity testing [3]: ≥ 100 µM

Compound: CC(C(=O)N1CCN(C)CC1)c1ccc(Oc2nc3cc(F)c(F)cc3s2)cc1 (stereo not drawn) [NZ-465, 2-{4-[(5,6-difluoro-1,3-benzothiazol-2-yl)oxy]phenyl}-1-(4-methylpiperazin-1-yl)propan-1-one]
- MIC50 [1]: < 0.25 µM
- inhibition at 0.25 µM [1]: 68%
- concentrations at which not toxic, S. cerevisiae cytotoxicity testing [2]: ≥ 100 µM
- concentrations at which not toxic, human fibroblast cytotoxicity testing [3]: ≥ 100 µM

Compound: CC(C(=O)N1CCN(C)CC1)c1ccc(Oc2nc3ccc(F)cc3s2)cc1 (stereo not drawn) [NZ-466, 2-{4-[(6-fluoro-1,3-benzothiazol-2-yl)oxy]phenyl}-1-(4-methylpiperazin-1-yl)propan-1-one]
- MIC50 [1]: 0.05 to 0.1 µM (≈ 0.02 to 0.0399 µg/mL)
- concentrations at which not toxic, S. cerevisiae cytotoxicity testing [2]: ≥ 100 µM
- concentrations at which not toxic, human fibroblast cytotoxicity testing [3]: ≥ 100 µM

Compound: CN1CCN(C(=O)Cc2ccc(Oc3nc4ccc(F)cc4s3)cc2F)CC1 [NZ-467, 2-{2-fluoro-4-[(6-fluoro-1,3-benzothiazol-2-yl)oxy]phenyl}-1-(4-methylpiperazin-1-yl)ethan-1-one]
- MIC50 [1]: 0.25 to 1 µM (≈ 0.101 to 0.403 µg/mL)
- concentrations at which not toxic, S. cerevisiae cytotoxicity testing [2]: ≥ 100 µM
- concentrations at which not toxic, human fibroblast cytotoxicity testing [3]: ≥ 100 µM

Compound: O=C(Cc1ccc(Oc2nc3ccc(F)cc3s2)cc1)N1CCCCC1 [NZ-471, 2-{4-[(6-fluoro-1,3-benzothiazol-2-yl)oxy]phenyl}-1-(piperidin-1-yl)ethan-1-one]
- MIC50 [1]: 1 to 4 µM (≈ 0.37 to 1.48 µg/mL)
- inhibition at 4 µM ([1]; HCT-8, @4 uM, read-out: % inh @): 89%
- concentrations at which not toxic, S. cerevisiae cytotoxicity testing [2]: ≥ 100 µM
- concentrations at which not toxic, human fibroblast cytotoxicity testing [3]: ≥ 100 µM

Compound: O=C(Cc1ccc(Oc2nc3ccc(F)cc3s2)cc1)N1CCNCC1 [NZ-472, 2-{4-[(6-fluoro-1,3-benzothiazol-2-yl)oxy]phenyl}-1-(piperazin-1-yl)ethan-1-one]
- MIC50 [1]: ~1 µM (≈ 0.371 µg/mL)
- concentrations at which not toxic, S. cerevisiae cytotoxicity testing [2]: ≥ 100 µM
- concentrations at which not toxic, human fibroblast cytotoxicity testing [3]: ≥ 100 µM

Compound: CN1CCN(C(=O)Cc2ccc(Oc3nc4ccc(F)cc4s3)cc2)CC1 [NZ-476, 2-{4-[(6-fluoro-1,3-benzothiazol-2-yl)oxy]phenyl}-1-(4-methylpiperazin-1-yl)ethan-1-one]
- MIC50 [1]: 0.5 to 1 µM (≈ 0.193 to 0.385 µg/mL)
- concentrations at which not toxic, S. cerevisiae cytotoxicity testing [2]: ≥ 100 µM
- concentrations at which not toxic, human fibroblast cytotoxicity testing [3]: ≥ 100 µM

Compound: CC(C(=O)N1CCNCC1)c1ccc(Oc2nc3ccc(F)cc3s2)cc1 (stereo not drawn) [NZ-477, 2-{4-[(6-fluoro-1,3-benzothiazol-2-yl)oxy]phenyl}-1-(piperazin-1-yl)propan-1-one]
- MIC50 [1]: 0.05 to 0.17 µM (≈ 0.0193 to 0.0655 µg/mL)
- concentrations at which not toxic, S. cerevisiae cytotoxicity testing [2]: ≥ 100 µM
- concentrations at which not toxic, human fibroblast cytotoxicity testing [3]: ≥ 100 µM

Compound: O=C(Cc1ccc(Oc2nc3ccc(Cl)cc3s2)cc1)N1CCNCC1 [NZ-479, 2-{4-[(6-chloro-1,3-benzothiazol-2-yl)oxy]phenyl}-1-(piperazin-1-yl)ethan-1-one]
- MIC50 [1]: 0.5 to 1 µM (≈ 0.194 to 0.388 µg/mL)
- concentrations at which not toxic, S. cerevisiae cytotoxicity testing [2]: ≥ 100 µM
- concentrations at which not toxic, human fibroblast cytotoxicity testing [3]: ≥ 100 µM

Compound: O=C(Cc1ccc(Oc2nc3cc(F)c(F)cc3s2)cc1)N1CCCCC1 [NZ-481, 2-{4-[(5,6-difluoro-1,3-benzothiazol-2-yl)oxy]phenyl}-1-(piperidin-1-yl)ethan-1-one]
- MIC50 [1]: 1 to 4 µM (≈ 0.388 to 1.55 µg/mL)
- concentrations at which not toxic, S. cerevisiae cytotoxicity testing [2]: ≥ 100 µM
- concentrations at which not toxic, human fibroblast cytotoxicity testing [3]: ≥ 100 µM

Compound: NC(=O)Cc1ccc(Oc2nc3ccc(F)cc3s2)cc1F [NZ-484, 2-{2-fluoro-4-[(6-fluoro-1,3-benzothiazol-2-yl)oxy]phenyl}acetamide]
- MIC50 [1]: ~1 µM (≈ 0.32 µg/mL)
- concentrations at which not toxic, S. cerevisiae cytotoxicity testing [2]: ≥ 100 µM
- concentrations at which not toxic, human fibroblast cytotoxicity testing [3]: ≥ 100 µM

Compound: NC(=O)Cc1ccc(Oc2nc3cc(F)c(F)cc3s2)cc1 [NZ-485, 2-{4-[(5,6-difluoro-1,3-benzothiazol-2-yl)oxy]phenyl}acetamide]
- MIC50 [1]: 1 to 4 µM (≈ 0.32 to 1.28 µg/mL)
- concentrations at which not toxic, S. cerevisiae cytotoxicity testing [2]: ≥ 100 µM
- concentrations at which not toxic, human fibroblast cytotoxicity testing [3]: ≥ 100 µM

Compound: CC(C(=O)N1CCNCC1)c1ccc(Oc2nc3cc(F)c(F)cc3s2)cc1 (stereo not drawn) [NZ-489, 2-{4-[(5,6-difluoro-1,3-benzothiazol-2-yl)oxy]phenyl}-1-(piperazin-1-yl)propan-1-one]
- MIC50 [1]: < 0.25 µM
- inhibition at 0.25 µM [1]: 68%
- concentrations at which not toxic, S. cerevisiae cytotoxicity testing [2]: ≥ 100 µM
- concentrations at which not toxic, human fibroblast cytotoxicity testing [3]: ≥ 100 µM

Compound: O=C(Cc1ccc(Oc2nc3ccc(F)cc3s2)cc1)N1CCCC1 [NZ-490, 2-{4-[(6-fluoro-1,3-benzothiazol-2-yl)oxy]phenyl}-1-(pyrrolidin-1-yl)ethan-1-one]
- MIC50 [1]: ~0.25 µM (≈ 0.0891 µg/mL)
- inhibition at 0.25 µM [1]: 60%
- concentrations at which not toxic, S. cerevisiae cytotoxicity testing [2]: ≥ 100 µM
- concentrations at which not toxic, human fibroblast cytotoxicity testing [3]: ≥ 100 µM
